These results are taken from patent US9487515B2, “Compounds modulating c-fms and/or c-kit activity and uses therefor” (Plexxikon Inc., priority 2006, dated 2016).

A value given as a limit tells only on which side of the number the result lay.

This assay concerns the target c-kit (Homo sapiens, UniProt P10721). The assay is described as follows: c-kit assays of Examples 40 and 41 (AlphaScreen kinase assays at 10 and 100 μM ATP, 33P-ATP filter assay, M-07e SCF-stimulated proliferation and phosphorylation). (In general: In Alpha technology, singlet oxygen from a donor bead excites a nearby acceptor bead.)

c-kit, sequence (P10721 with tags, fused parts or gaps): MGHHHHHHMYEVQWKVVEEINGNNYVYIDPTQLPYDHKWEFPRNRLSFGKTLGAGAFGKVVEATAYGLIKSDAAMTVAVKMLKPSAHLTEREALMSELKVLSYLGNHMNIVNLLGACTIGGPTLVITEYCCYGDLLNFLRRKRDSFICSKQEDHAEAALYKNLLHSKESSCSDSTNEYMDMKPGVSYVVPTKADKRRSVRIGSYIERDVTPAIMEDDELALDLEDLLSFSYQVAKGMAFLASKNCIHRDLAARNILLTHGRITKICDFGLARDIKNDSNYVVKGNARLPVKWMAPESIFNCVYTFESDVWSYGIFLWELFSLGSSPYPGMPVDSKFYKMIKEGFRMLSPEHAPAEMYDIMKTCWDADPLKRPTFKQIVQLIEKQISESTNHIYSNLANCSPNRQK

As usually defined, the IC50 is the midpoint of a concentration-inhibition curve. In the case of `Fc1ccc(C(F)(F)F)cc1CNc1ncc(Cc2c[nH]c3ncccc23)cn1` [P-0291, (2-Fluoro-5-trifluoromethyl-benzyl)-[5-(1H-pyrrolo[2,3-b]pyridin-3-ylmethyl)-pyrimidin-2-yl]-amine], the IC50 was below 1000 nM. With `Fc1cc(CNc2ncc(Cc3c[nH]c4ncccc34)cn2)cc(C(F)(F)F)c1` [P-0294, (3-Fluoro-5-trifluoromethyl-benzyl)-[5-(1H-pyrrolo[2,3-b]pyridin-3-ylmethyl)-pyrimidin-2-yl]-amine], the IC50 is below 1000 nM. `Cc1cnc2[nH]cc(Cc3ccc(NCc4cc(F)ccc4F)nc3)c2c1` [P-0297, (2,5-Difluoro-benzyl)-[5-(5-methyl-1H-pyrrolo[2,3-b]pyridin-3-ylmethyl)-pyridin-2-yl]-amine] had a 50% inhibitory concentration (IC50) below 1000 nM. The same measure for `Fc1ccc(F)c(CNc2ccc(Cc3c[nH]c4ncc(Cl)cc34)cn2)c1` [P-0298, [5-(5-Chloro-1H-pyrrolo[2,3-b]pyridin-3-ylmethyl)-pyridin-2-yl]-(2,5-difluoro-benzyl)-amine]: below 1000 nM; for `Clc1ccccc1CNc1ncc(Cc2c[nH]c3ncccc23)cn1` [P-0301, (2-Chloro-benzyl)-[5-(1H-pyrrolo[2,3-b]pyridin-3-ylmethyl)-pyrimidin-2-yl]-amine]: below 1000 nM; for `FC(F)(F)c1ccccc1CNc1ncc(Cc2c[nH]c3ncccc23)cn1` [P-0302, [5-(1H-Pyrrolo[2,3-b]pyridin-3-ylmethyl)-pyrimidin-2-yl]-(2-trifluoromethyl-benzyl)-amine]: below 1000 nM. The same measure for `Clc1ccc(CNc2ncc(Cc3c[nH]c4ncccc34)cn2)c(Cl)c1` [P-0305, (2,4-Dichloro-benzyl)-[5-(1H-pyrrolo[2,3-b]pyridin-3-ylmethyl)-pyrimidin-2-yl]-amine]: below 1000 nM; for `Fc1ccc(CNc2ncc(Cc3c[nH]c4ncccc34)cn2)c(F)c1` [P-0306, (2,4-Difluoro-benzyl)-[5-(1H-pyrrolo[2,3-b]pyridin-3-ylmethyl)-pyrimidin-2-yl]-amine]: below 1000 nM; for `Clc1ccc(CNc2ncc(Cc3c[nH]c4ncccc34)cn2)cc1` [P-0307, (4-Chloro-benzyl)-[5-(1H-pyrrolo[2,3-b]pyridin-3-ylmethyl)-pyrimidin-2-yl]-amine]: below 1000 nM. The result for `FC(F)(F)c1ccc(CNc2ncc(Cc3c[nH]c4ncccc34)cn2)cc1` [P-0308, [5-(1H-Pyrrolo[2,3-b]pyridin-3-ylmethyl)-pyrimidin-2-yl]-(4-trifluoromethyl-benzyl)-amine] reads below 1000 nM; that for `Fc1c(CNc2ncc(Cc3c[nH]c4ncccc34)cn2)cccc1C(F)(F)F` [P-0309, (2-Fluoro-3-trifluoromethyl-benzyl)-[5-(1H-pyrrolo[2,3-b]pyridin-3-ylmethyl)-pyrimidin-2-yl]-amine], below 1000 nM; that for `Fc1c(Cl)cccc1CNc1ncc(Cc2c[nH]c3ncccc23)cn1` [P-0311, (3-Chloro-2-fluoro-benzyl)-[5-(1H-pyrrolo[2,3-b]pyridin-3-ylmethyl)-pyrimidin-2-yl]-amine], below 1000 nM. Consider `FC(F)Oc1ccccc1CNc1ncc(Cc2c[nH]c3ncccc23)cn1` [P-0312, (2-Difluoromethoxy-benzyl)-[5-(1H-pyrrolo[2,3-b]pyridin-3-ylmethyl)-pyrimidin-2-yl]-amine], for which the IC50 is below 1000 nM. The same measure for `Clc1cccc(CNc2ncc(Cc3c[nH]c4ncccc34)cn2)c1Cl` [P-0313, (2,3-Dichloro-benzyl)-[5-(1H-pyrrolo[2,3-b]pyridin-3-ylmethyl)-pyrimidin-2-yl]-amine]: below 1000 nM; for `Fc1cc(Cl)ccc1CNc1ncc(Cc2c[nH]c3ncccc23)cn1` [P-0314, (4-Chloro-2-fluoro-benzyl)-[5-(1H-pyrrolo[2,3-b]pyridin-3-ylmethyl)-pyrimidin-2-yl]-amine]: below 1000 nM; for `Fc1ccc(CNc2ncc(Cc3c[nH]c4ncccc34)cn2)c(Cl)c1` [P-0316, (2-Chloro-4-fluoro-benzyl)-[5-(1H-pyrrolo[2,3-b]pyridin-3-ylmethyl)-pyrimidin-2-yl]-amine]: below 1000 nM. The result for `Fc1cc(C(F)(F)F)ccc1CNc1ncc(Cc2c[nH]c3ncccc23)cn1` [P-0319, (2-Fluoro-4-trifluoromethyl-benzyl)-[5-(1H-pyrrolo[2,3-b]pyridin-3-ylmethyl)-pyrimidin-2-yl]-amine] reads below 1000 nM; that for `Fc1ccc(CNc2ncc(Cc3c[nH]c4ncccc34)cn2)c(C(F)(F)F)c1` [P-0320, (4-Fluoro-2-trifluoromethyl-benzyl)-[5-(1H-pyrrolo[2,3-b]pyridin-3-ylmethyl)-pyrimidin-2-yl]-amine], below 1000 nM; that for `N#Cc1cnc2[nH]cc(Cc3ccc(NCc4ccccc4OC(F)(F)F)nc3)c2c1` [P-0321, 3-[6-(2-Trifluoromethoxy-benzylamino)-pyridin-3-ylmethyl]-1H-pyrrolo[2,3-b]pyridine-5-carbonitrile], below 1000 nM.

Compound `FC(F)(F)Oc1ccccc1CNc1ccc(Cc2c[nH]c3ncccc23)cn1` [P-0322, [5-(1H-Pyrrolo[2,3-b]pyridin-3-ylmethyl)-pyridin-2-yl]-(2-trifluoromethoxy-benzyl)-amine] displayed an IC50 below 1000 nM.

`CCOc1ccccc1CNc1ccc(Cc2c[nH]c3ncc(C#N)cc23)cn1` [P-0323, 3-[6-(2-Ethoxy-benzylamino)-pyridin-3-ylmethyl]-1H-pyrrolo[2,3-b]pyridine-5-carbonitrile] returned an IC50 below 1000 nM. The same measure for `Fc1cnc2[nH]cc(Cc3ccc(NCc4ccccc4C(F)(F)F)nc3)c2c1` [P-0325, [5-(5-Fluoro-1H-pyrrolo[2,3-b]pyridin-3-ylmethyl)-pyridin-2-yl]-(2-trifluoromethyl-benzyl)-amine]: below 1000 nM; for `COc1cnc2[nH]cc(Cc3ccc(NCc4ccccc4C(F)(F)F)nc3)c2c1` [P-0326, [5-(5-Methoxy-1H-pyrrolo[2,3-b]pyridin-3-ylmethyl)-pyridin-2-yl]-(2-trifluoromethyl-benzyl)-amine]: below 1000 nM; for `Fc1cnc2[nH]cc(Cc3ccc(NCc4ccccc4Cl)nc3)c2c1` [P-0327, (2-Chloro-benzyl)-[5-(5-fluoro-1H-pyrrolo[2,3-b]pyridin-3-ylmethyl)-pyridin-2-yl]-amine]: below 1000 nM. Regarding `COc1cnc2[nH]cc(Cc3ccc(NCc4ccccc4Cl)nc3)c2c1` [P-0328, (2-Chloro-benzyl)-[5-(5-methoxy-1H-pyrrolo[2,3-b]pyridin-3-ylmethyl)-pyridin-2-yl]-amine], the half-inhibitory concentration (IC50) was below 1000 nM. `Fc1ccc(F)c(CNc2ccc(Cc3c[nH]c4ncc(F)cc34)cn2)c1` [P-0329, (2,5-Difluoro-benzyl)-[5-(5-fluoro-1H-pyrrolo[2,3-b]pyridin-3-ylmethyl)-pyridin-2-yl]-amine] had an IC50 below 1000 nM. The result for `COc1cnc2[nH]cc(Cc3ccc(NCc4cc(F)ccc4F)nc3)c2c1` [P-0330, (2,5-Difluoro-benzyl)-[5-(5-methoxy-1H-pyrrolo[2,3-b]pyridin-3-ylmethyl)-pyridin-2-yl]-amine] reads below 1000 nM. In turn, `COc1ccc(CNc2ccc(Cc3c[nH]c4ncc(F)cc34)cn2)cn1` [P-0331, [5-(5-Fluoro-1H-pyrrolo[2,3-b]pyridin-3-ylmethyl)-pyridin-2-yl]-(6-methoxy-pyridin-3-ylmethyl)-amine] returned a half-inhibitory concentration (IC50) below 1000 nM.
